Source: the NIST ThermoML archive (doi:10.1016/j.jct.2015.07.042)
± gives the expanded uncertainty stated by the source.

How the values were obtained:
[1] = 100 kPa, Vibrating tube method
[2] = activity coefficient (dimensionless); of the first substance listed, at infinite dilution; xn = mol fraction of the nth substance listed; conditions: 101 kPa, Liquid, Chromatography, x1 = 0

| SMILES | activity coefficient ([2]; 358.15 K) | activity coefficient ([2]; 368.15 K) | activity coefficient ([2]; 378.15 K) | activity coefficient ([2]; 388.15 K) | other results |
| --- | --- | --- | --- | --- | --- |
| CCCCn1cc[n+](C)c1.[Cl-] [1-butyl-3-methylimidazolium chloride] |  |  |  |  | mass density ([1]; 308.15 K, Metastable liquid): 1079.4 ± 1 kg/m3; mass density ([1]; 313.15 K, Metastable liquid): 1076.6 ± 1 kg/m3; mass density ([1]; 318.15 K, Metastable liquid): 1073.7 ± 1 kg/m3; mass density ([1]; 323.15 K, Metastable liquid): 1070.9 ± 1 kg/m3; mass density ([1]; 328.15 K, Metastable liquid): 1068.1 ± 1 kg/m3; mass density ([1]; 333.15 K, Metastable liquid): 1065.2 ± 1 kg/m3; mass density ([1]; 338.15 K, Metastable liquid): 1062.4 ± 1 kg/m3; mass density ([1]; 343.15 K, Liquid): 1059.6 ± 1 kg/m3; mass density ([1]; 348.15 K, Liquid): 1056.9 ± 1 kg/m3; mass density ([1]; 353.15 K, Liquid): 1054.3 ± 1 kg/m3; mass density ([1]; 358.15 K, Liquid): 1051.7 ± 1 kg/m3; mass density ([1]; 363.15 K, Liquid): 1049 ± 1 kg/m3; mass density ([1]; 368.15 K, Liquid): 1046.4 ± 1 kg/m3; mass density ([1]; 373.15 K, Liquid): 1043.9 ± 1 kg/m3 |
| CCCC(=O)OC [methyl butanoate] + CCCCn1cc[n+](C)c1.[Cl-] | 12.3 ± 0.84 | 12.4 ± 0.85 | 12.6 ± 0.86 | 12.7 ± 0.87 |  |
| C1CCCCC1 [cyclohexane] + CCCCn1cc[n+](C)c1.[Cl-] | 84.2 ± 5.8 | 79 ± 5.4 | 73 ± 5 | 69.8 ± 4.8 |  |
| CCCC(C)=O [pentan-2-one] + CCCCn1cc[n+](C)c1.COP(=O)([O-])OC | 3.63 ± 0.25 | 3.7 ± 0.25 | 3.78 ± 0.26 | 3.94 ± 0.27 |  |
| C1COCCO1 [1,4-dioxane] + CCCCn1cc[n+](C)c1.[Cl-] | 3.47 ± 0.24 | 3.55 ± 0.24 | 3.65 ± 0.25 | 3.74 ± 0.25 |  |
| C#CCCCCC [1-heptyne] + CCCCn1cc[n+](C)c1.COP(=O)([O-])OC | 4.21 ± 0.29 | 4.48 ± 0.31 | 4.7 ± 0.32 | 4.93 ± 0.34 |  |
| CCCC=O [butanal] + CCCCn1cc[n+](C)c1.CS(=O)(=O)[O-] | 3.33 ± 0.23 | 3.44 ± 0.23 | 3.58 ± 0.24 | 3.74 ± 0.25 |  |
| c1ccsc1 [thiophene] + CCCCn1cc[n+](C)c1.[Cl-] | 2.04 ± 0.14 | 2.16 ± 0.15 | 2.27 ± 0.15 | 2.41 ± 0.16 |  |
| CC#N [acetonitrile] + CCCCn1cc[n+](C)c1.CS(=O)(=O)[O-] | 0.99 ± 0.06 | 1.03 ± 0.06 | 1.08 ± 0.07 | 1.12 ± 0.07 |  |
| CCCOCCC [dipropyl ether] + CCCCn1cc[n+](C)c1.COP(=O)([O-])OC | 13.9 ± 0.95 | 13.7 ± 0.94 | 13.6 ± 0.93 | 13.4 ± 0.92 |  |
| C=CCCCC [hex-1-ene] + CCCCn1cc[n+](C)c1.[Cl-] | 61.7 ± 4.2 | 57.9 ± 4 | 53.9 ± 3.7 | 52 ± 3.6 |  |
| CCC(=O)OC [methyl propanoate] + CCCCn1cc[n+](C)c1.[Cl-] | 8 ± 0.55 | 8.09 ± 0.55 | 8.2 ± 0.56 | 8.31 ± 0.57 |  |
| CCC(C)(C)OC [2-methoxy-2-methylbutane] + CCCCn1cc[n+](C)c1.[Cl-] | 34 ± 2.3 | 33.1 ± 2.3 | 32.2 ± 2.2 | 32.1 ± 2.2 |  |
| C=COC(C)=O [vinyl acetate] + CCCCn1cc[n+](C)c1.[Cl-] | 5.66 ± 0.39 | 5.74 ± 0.39 | 5.86 ± 0.4 | 6.05 ± 0.41 |  |
| CCCOCCC [dipropyl ether] + CCCCn1cc[n+](C)c1.CS(=O)(=O)[O-] | 38.1 ± 2.6 | 38.7 ± 2.6 | 38.9 ± 2.7 | 39.4 ± 2.7 |  |
| C=CCCCCCC [oct-1-ene] + CCCCn1cc[n+](C)c1.[Cl-] | 142 ± 9.7 | 134 ± 9.2 | 126 ± 8.6 | 122 ± 8.4 |  |
| CCCCO [butan-1-ol] + CCCCn1cc[n+](C)c1.COP(=O)([O-])OC |  |  |  |  | activity coefficient ([2]; 398.15 K): 0.247 ± 0.03; activity coefficient ([2]; 408.15 K): 0.271 ± 0.03; activity coefficient ([2]; 418.15 K): 0.299 ± 0.031; activity coefficient ([2]; 428.15 K): 0.324 ± 0.032 |
| CC(C)CO [2-methyl-1-propanol] + CCCCn1cc[n+](C)c1.CS(=O)(=O)[O-] |  |  |  |  | activity coefficient ([2]; 398.15 K): 0.893 ± 0.057; activity coefficient ([2]; 408.15 K): 0.938 ± 0.059; activity coefficient ([2]; 418.15 K): 0.991 ± 0.062; activity coefficient ([2]; 428.15 K): 1.04 ± 0.066 |
| C=CCCCCCCCC [1-decene] + CCCCn1cc[n+](C)c1.[Cl-] | 323 ± 22 | 306 ± 21 | 285 ± 20 | 277 ± 19 |  |

| SMILES | activity coefficient ([2]; 358.15 K) | activity coefficient ([2]; 368.15 K) | activity coefficient ([2]; 378.15 K) | activity coefficient ([2]; 388.15 K) | other results |
| --- | --- | --- | --- | --- | --- |
| CCCC=O [butanal] + CCCCn1cc[n+](C)c1.COP(=O)([O-])OC | 2.66 ± 0.18 | 2.74 ± 0.19 | 2.82 ± 0.19 | 2.97 ± 0.2 |  |
| CCOC(C)(C)C [2-ethoxy-2-methylpropane] + CCCCn1cc[n+](C)c1.COP(=O)([O-])OC | 12.8 ± 0.87 | 12.8 ± 0.87 | 12.9 ± 0.88 | 12.9 ± 0.88 |  |
| C1CCCCCC1 [cycloheptane] + CCCCn1cc[n+](C)c1.COP(=O)([O-])OC | 15.1 ± 1 | 14.6 ± 1 | 14.3 ± 0.97 | 14 ± 0.96 |  |
| CCCCCCCCC [nonane] + CCCCn1cc[n+](C)c1.CS(=O)(=O)[O-] | 251 ± 17 | 239 ± 16 | 229 ± 16 | 223 ± 15 |  |
| C=CCCCCC [1-heptene] + CCCCn1cc[n+](C)c1.CS(=O)(=O)[O-] | 59.2 ± 4.1 | 58.9 ± 4 | 58.7 ± 4 | 58 ± 4 |  |
| CCOC(C)=O [ethyl acetate] + CCCCn1cc[n+](C)c1.COP(=O)([O-])OC | 3.81 ± 0.26 | 3.91 ± 0.27 | 4.01 ± 0.27 | 4.18 ± 0.28 |  |
| Cc1ccccc1C [1,2-dimethylbenzene] + CCCCn1cc[n+](C)c1.[Cl-] | 11.6 ± 0.79 | 11.7 ± 0.8 | 11.9 ± 0.81 | 12.3 ± 0.84 |  |
| C1CCCC1 [cyclopentane] + CCCCn1cc[n+](C)c1.[Cl-] | 38.7 ± 2.6 | 36.2 ± 2.5 | 33.5 ± 2.3 | 31.8 ± 2.2 |  |
| O [water] + CCCCn1cc[n+](C)c1.CS(=O)(=O)[O-] |  |  |  |  | activity coefficient ([2]; 398.15 K): 0.2 ± 0.029; activity coefficient ([2]; 408.15 K): 0.214 ± 0.029; activity coefficient ([2]; 418.15 K): 0.228 ± 0.029; activity coefficient ([2]; 428.15 K): 0.239 ± 0.029 |
| c1ccsc1 [thiophene] + CCCCn1cc[n+](C)c1.COP(=O)([O-])OC | 1.24 ± 0.08 | 1.35 ± 0.09 | 1.43 ± 0.09 | 1.53 ± 0.1 |  |
| C1CCCCC1 [cyclohexane] + CCCCn1cc[n+](C)c1.COP(=O)([O-])OC | 12.3 ± 0.84 | 11.9 ± 0.81 | 11.6 ± 0.79 | 11.4 ± 0.78 |  |
| C=CCCCCC [1-heptene] + CCCCn1cc[n+](C)c1.COP(=O)([O-])OC | 19.6 ± 1.3 | 19.4 ± 1.3 | 19.1 ± 1.3 | 18.9 ± 1.3 |  |
| CCc1ccccc1 [ethylbenzene] + CCCCn1cc[n+](C)c1.CS(=O)(=O)[O-] | 8.45 ± 0.58 | 8.61 ± 0.59 | 8.76 ± 0.6 | 9.05 ± 0.62 |  |
| CCC[N+](=O)[O-] [1-nitropropane] + CCCCn1cc[n+](C)c1.[Cl-] | 2.51 ± 0.17 | 2.61 ± 0.18 | 2.69 ± 0.18 | 2.8 ± 0.19 |  |
| C1CCCC1 [cyclopentane] + CCCCn1cc[n+](C)c1.CS(=O)(=O)[O-] | 23.9 ± 1.6 | 23.7 ± 1.6 | 23.5 ± 1.6 | 23.3 ± 1.6 |  |
| C#CCCC [1-pentyne] + CCCCn1cc[n+](C)c1.COP(=O)([O-])OC | 2.18 ± 0.15 | 2.32 ± 0.16 | 2.46 ± 0.17 | 2.6 ± 0.18 |  |
| C=CCCCCCCCC [1-decene] + CCCCn1cc[n+](C)c1.CS(=O)(=O)[O-] | 193 ± 13 | 187 ± 13 | 182 ± 12 | 179 ± 12 |  |
| C1=CCCCC1 [cyclohexene] + CCCCn1cc[n+](C)c1.CS(=O)(=O)[O-] | 18.4 ± 1.3 | 18.6 ± 1.3 | 18.7 ± 1.3 | 19 ± 1.3 |  |
| CO [methanol] + CCCCn1cc[n+](C)c1.COP(=O)([O-])OC |  |  |  |  | activity coefficient ([2]; 398.15 K): 0.097 ± 0.03; activity coefficient ([2]; 408.15 K): 0.105 ± 0.03; activity coefficient ([2]; 418.15 K): 0.115 ± 0.03; activity coefficient ([2]; 428.15 K): 0.125 ± 0.03 |
